Test results from patent publication US9169252B2 (BRISTOL-MYERS SQUIBB COMPANY, priority 2014, dated 2015).
Structures can show the parent of a compound that is named as a salt. Where two headings read alike, the source gives them in different places.

Tested on: TLR2 induced IL-6 in peripheral blood mononuclear cells (PBMCs)
Test: PBMC TLR2 Induced IL-6 Assay
Format: cell-based, human
Conditions: IL-6 by ELISA; for IC50: read-out: Cell IC50; for EC50: read-out: Cell EC50
Experimental: PBMC TLR2 Induced IL-6 Assay
Peripheral blood mononuclear cells (PBMCs) were isolated from human blood containing the anti-coagulant EDTA (2.5 mM) by centrifugation over a FICOLL® gradient. PBMCs (250000 cells/well) were cultured in assay media (RPMI with 10% heat inactivated FCS) with compounds for 30 minutes at 37° C. in a 5% CO2 incubator. Following pretreatment with compounds, cells were stimulated for 5 hours with 10 µg/ml lipoteichoic acid (Invivogen, San Diego, Calif.), a TLR2 agonist. At the end of the culture, plates were centrifuged at 1800 rpm for 10 minutes to pellet the cells.

[1] = Homo sapiens, PBMC, human PBMCs, lipoteichoic acid stimulated
[2] = human PBMCs, lipoteichoic acid stimulated
[3] = Homo sapiens, PBMC, PBMC TLR2 Induced IL-6 Assay, lipoteichoic acid stimulation
[4] = PBMC TLR2 Induced IL-6 Assay, lipoteichoic acid stimulation

## CC(C)(O)[C@H](F)CNC(=O)c1cnc(-n2ncc3cc(C#N)cnc32)cc1N[C@@H]1CCOC1 [Example 548]
[1]
  IC50: 763 nM
[2]
  EC50: 708 nM

## CC(C)Nc1cc(-n2ccc3cc(C#N)cnc32)ncc1C(=O)NC1CCC(C(C)(O)C2CC2)CC1 (stereo not shown) [Example 444]
[2]
  EC50: 186 nM

## CC(C)Nc1cc(-n2ccc3cc(Cl)cnc32)ncc1C(=O)NC[C@@H](F)C(C)(C)O [Example 76, (R)-6-(5-chloro-1H-pyrrolo[2,3-b]pyridin-1-yl)-N-(2-fluoro-3-hydroxy-3-methylbutyl)-4-(isopropylamino) nicotinamide]
[3]
  IC50: 395 nM

## CC(C)(O)[C@H](F)CNC(=O)c1cnc(-n2ncc3cc(C#N)cnc32)cc1NC1CCC(F)C1 (stereo partly shown) [Example 627]
[2]
  IC50: 7 nM

## CC(C)Nc1cc(-n2ccc3cc(CNC(=O)CC(C)(C)O)cnc32)ncc1C(=O)NC[C@@H](F)C(C)(C)O [Example 499]
[1]
  IC50: 213 nM

## CC(C)Nc1cc(-n2ccc3cc(C#N)cnc32)ncc1C(=O)NC[C@@H](F)C(C)O (single isomer, unassigned) [Example 48]
[4]
  EC50: 24 nM

## CC(C)(O)[C@H](F)CNC(=O)c1cnc(-n2ncc3cc(F)cnc32)cc1NC1CCC(O)C1 (mixture of isomers) [Example 611]
[2]
  EC50: 536 nM
  IC50: 1850 nM

## CC(C)(O)[C@H](F)CNC(=O)c1cnc(-n2ncc3cc(C#N)cnc32)cc1N[C@@H]1CCOC1 [Example 544, 6-(5-Cyano-1H-pyrazolo[3,4-b]pyridin-1-yl)-N—((R)-2-fluoro-3-hydroxy-3-methylbutyl)-4-(((R)-tetrahydrofuran-3-yl)amino)nicotinamide, TFA salt]
Human PBMCs, lipoteichoic acid stimulated, TFA salt
  EC50: 239 nM

## CC(C)Nc1cc(-n2ncc3cc(C#N)cnc32)ncc1C(=O)NCC1CCS(=O)(=O)C1 (stereo not shown) [Example 209]
[3]
  EC50: 322 nM

## CC(C)(O)[C@H](F)CNC(=O)c1cnc(-n2ccc3cc(C#N)cnc32)cc1NC1CCCOC1 (single isomer, unassigned) [Example 7]
[3]
  EC50: 477 nM
  IC50: 477 nM

## CC(C)(O)[C@H](F)CNC(=O)c1cnc(-n2ccc3cc(C#N)cnc32)cc1NC1CCCC(F)(F)C1O (stereo partly drawn) [Example 111, 6-(5-cyano-1H-pyrrolo[2,3-b]pyridin-1-yl)-4-((3,3-difluoro-2-hydroxycyclohexyl)amino)-N—((R)-2-fluoro-3-hydroxy-3-methylbutyl) nicotinamide]
[3]
  EC50: 238 nM

## CC(C)(O)[C@H](F)CNC(=O)c1cnc(-n2ncc3cc(Cl)cnc32)cc1NC1CCOCC1 [Example 135, (R)-6-(5-chloro-1H-pyrazolo[3,4-b]pyridin-1-yl)-N-(2-fluoro-3-hydroxy-3-methylbutyl)-4-((tetrahydro-2H-pyran-4-yl)amino) nicotinamide]
[3]
  EC50: 168 nM

## CC(C)Nc1cc(-n2ncc3cc(C#N)cnc32)ncc1C(=O)N[C@H]1CC[C@H](NC(=O)[C@H](C)O)CC1 [Example 274]
[3]
  IC50: 204 nM

## CC(C)(O)[C@H](F)CNC(=O)c1cnc(-n2ncc3cc(F)cnc32)cc1NC1CCC(O)C1 (single isomer, unassigned) [Example 610]
[2]
  EC50: 166 nM
  IC50: 217 nM

## CC(C)(O)[C@H](F)CNC(=O)c1cnc(-n2ncc3cc(C#N)cnc32)cc1N[C@H]1CCOC1 [Example 545, 6-(5-Cyano-1H-pyrazolo[3,4-b]pyridin-1-yl)-N—((R)-2-fluoro-3-hydroxy-3-methylbutyl)-4-(((S)-tetrahydrofuran-3-yl)amino)nicotinamide, TFA salt]
[1]
  EC50: 476 nM

## CC(C)(O)[C@H](F)CNC(=O)c1cnc(-n2ncc3cncnc32)cc1NC1CC1 [Example 134, (R)-4-(cyclopropylamino)-N-(2-fluoro-3-hydroxy-3-methylbutyl)-6-(1H-pyrazolo[3,4-d]pyrimidin-1-yl)nicotinamide]
[3]
  EC50: 282 nM

## CC(C)(O)[C@H](F)CNC(=O)c1cnc(-n2ncc3cc(C#N)cnc32)cc1NC1CCC(F)C1 (stereo partly shown) [Example 626]
[2]
  IC50: 76 nM

## CC(C)(O)[C@H](F)CNC(=O)c1cnc(-n2ncc3cc(Cl)cnc32)cc1N[C@@H]1C[C@H]1CO (single isomer, unassigned) [Example 645]
[2]
  IC50: 154 nM

## CC(C)(O)[C@H](F)CNC(=O)c1cnc(-n2ncc3cc(F)cnc32)cc1NC1CCC(O)C1 (single isomer, unassigned) [Example 609]
[2]
  EC50: 485 nM
  IC50: 1440 nM

## CC(O)CCNc1cc(-n2ncc3cc(C#N)cnc32)ncc1C(=O)NC[C@@H](F)C(C)(C)O (single isomer, unassigned) [Example 573]
[1]
  EC50: 729 nM
[2]
  IC50: 270 nM

## CC(C)(O)[C@H](F)CNC(=O)c1cnc(-n2ccc3cc(C(N)=O)cnc32)cc1NCC1CNC1 [Example 475]
[1]
  EC50: 305 nM
  IC50: 1180 nM

## CC(C)Nc1cc(-n2ccc3cc(C#N)cnc32)ncc1C(=O)NC[C@@H](F)C(C)O (single isomer, unassigned) [Example 49]
[4]
  EC50: 71 nM

## COc1cccc(Nc2cc(-n3ccc4cc(C#N)cnc43)ncc2C(=O)NC[C@@H](F)C(C)(C)O)c1 [Example 51, (R)-6-(5-cyano-1H-pyrrolo[2,3-b]pyridin-1-yl)-N-(2-fluoro-3-hydroxy-3-methylbutyl)-4-((3-methoxyphenyl)amino)nicotinamide]
[3]
  EC50: 65 nM

## CCCNc1cc(-n2ncc3cc(C#N)cnc32)ncc1C(=O)NC[C@@H](F)C(C)(C)O [Example 592]
[1]
  IC50: 271 nM

## CC(C)Nc1cc(-n2ccc3cc(C#N)cnc32)ncc1C(=O)NC1CCC(C(C)(O)C2CC2)CC1 (stereo not shown) [Example 446]
[2]
  EC50: 51 nM

## CC(C)Nc1cc(-n2ccc3cc(C#N)ccc32)ncc1C(=O)N[C@H]1CC[C@H](C(C)(C)O)CC1 [Example 414, 6-(5-Cyano-1H-indol-1-yl)-N-((1R,4R)-4-(2-hydroxypropan-2-yl)cyclohexyl)-4-(isopropylamino)nicotinamide]
[1]
  EC50: 188 nM

## CC(C)(O)[C@H](F)CNC(=O)c1cnc(-n2ncc3cc(C#N)cnc32)cc1N[C@@H]1CCN(c2ncc(F)cn2)C1 [Example 534]
[1]
  IC50: 824 nM
[2]
  EC50: 59 nM

## CC(C)Nc1cc(-n2cnc3cncnc32)ncc1C(=O)NC[C@@H](F)C(C)(C)O [Example 170, (R)—N-(2-Fluoro-3-hydroxy-3-methylbutyl)-4-(isopropylamino)-6-(9H-purin-9-yl) nicotinamide]
[3]
  EC50: 423 nM

## CC(F)CCNc1cc(-n2ncc3cc(C#N)cnc32)ncc1C(=O)NC[C@@H](F)C(C)(C)O (stereo partly shown) [Example 604]
[1]
  IC50: 104 nM

## CC(C)Nc1cc(-n2ccc3cc(C#N)cnc32)ncc1C(=O)N[C@H]1CC[C@H]([N+](=O)[O-])CC1 [Example 95, 6-(5-cyano-1H-pyrrolo[2,3-b]pyridin-1-yl)-4-(isopropylamino)-N-((trans)-4-nitrocyclohexyl)nicotinamide]
[3]
  EC50: 408 nM

## COC(C)(C)[C@H](F)CNC(=O)c1cnc(-n2ccc3cc(C#N)cnc32)cc1NC(C)C [Example 434]
[1]
  EC50: 57 nM

## CC(C)(O)[C@H](F)CNC(=O)c1cnc(-n2ncc3cc(Cl)cnc32)cc1N[C@@H]1C[C@H]1CO (single isomer, unassigned) [Example 646]
[2]
  IC50: 393 nM

## CC(C)(O)[C@H](F)CNC(=O)c1cnc(-n2ccc3cc(C#N)cnc32)cc1NC1CCCOC1 (single isomer, unassigned) [Example 8]
[4]
  EC50: 695 nM
  IC50: 695 nM

## CC(C)Nc1cc(-n2ncc3cc(C#N)cnc32)ncc1C(=O)N[C@H]1CC[C@H](NC(=O)[C@@H](C)O)CC1 [Example 287]
[3]
  IC50: 489 nM

## CC(C)(O)[C@H](F)CNC(=O)c1cnc(-n2ccc3cc(C#N)cnc32)cc1N[C@@H]1COC[C@H]1F (single isomer, unassigned) [Example 459]
[2]
  EC50: 95 nM
  IC50: 343 nM

## CC(C)(O)[C@H](F)CNC(=O)c1cnc(-n2ncc3cc(C#N)cnc32)cc1Nc1ccc(C#N)cc1 [Example 523]
[1]
  EC50: 24 nM

## CNC(=O)[C@H]1CC[C@H](NC(=O)c2cnc(-n3ccc4cc(C#N)cnc43)cc2NC2CCOCC2)CC1 [Example 86, 6-(5-cyano-1H-pyrrolo[2,3-b]pyridin-1-yl)-N-((trans)-4-(methylcarbamoyl)cyclohexyl)-4-((tetrahydro-2H-pyran-4-yl)amino)nicotinamide]
[3]
  EC50: 110 nM

## CC(C)(O)[C@H](F)CNC(=O)c1cnc(-n2ncc3cc(Cl)cnc32)cc1NC1CC1 [Example 136, (R)-6-(5-chloro-1H-pyrazolo[3,4-b]pyridin-1-yl)-4-(cyclopropylamino)-N-(2-fluoro-3-hydroxy-3-methylbutyl)nicotinamide]
[3]
  EC50: 133 nM

## CC(C)(O)[C@H](F)CNC(=O)c1cnc(-n2ccc3cc(C#N)cnc32)cc1NC1CCC(O)C1 (single isomer, unassigned) [Example 25]
[4]
  EC50: 22 nM

## CC(C)Nc1cc(-n2ncc3cc(Cl)cnc32)ncc1C(=O)NC[C@@H](F)C(C)(C)O [Example 137, (R)-6-(5-chloro-1H-pyrazolo[3,4-b]pyridin-1-yl)-N-(2-fluoro-3-hydroxy-3-methylbutyl)-4-(isopropylamino)nicotinamide]
[3]
  EC50: 84 nM

## CC(C)(O)[C@H](F)CNC(=O)c1cnc(-n2ccc3cc(C#N)cnc32)cc1NC1CCC(O)C1 (single isomer, unassigned) [Example 24]
[4]
  EC50: 30 nM

## CC(C)(O)[C@H](F)CNC(=O)c1cnc(-n2ccc3cc(C#N)cnc32)cc1NC1CCC(O)C1 (single isomer, unassigned) [Example 26]
[4]
  EC50: 168 nM
